Experimental data from US8592421B2, “Cyclic bioisosters of purine system derivatives and a pharmaceutical composition based thereon” (priority 2003, dated 2013).

How the values were obtained:
[1] = tested on: thrombocytes; assay: ADP-induced aggregation of thrombocytes in vitro (Born method, plasma enriched with thrombocytes); type: cell-based, rabbit; details: 3-minute incubation, ADP 10^−5 M
Description: The aggregation of thrombocytes was studied by the Born method based on determination of the changes in the optical density of plasma enriched with thrombocytes after its incubation with an aggregation inductor.
Adenozinediphosphoric acid (ADP) was selected as an aggregation inductor, which in fact is an aggregation generator. Use was made of a sample (registration number 885) of the Sigma Diagnostics Company (USA) in final concentration of 10^−5 M.
The experiments were carried out on male rabbits of the “Chinchilla” breed having a mass of 2.7±0.3 kg. 18-24 hours prior to the experiment they were deprived of feed while preserving free access to water.
To obtain plasma enriched with thrombocytes, blood was taken from a cut of a marginal vein of the rabbit ear, the sample was stabilized with 3.8% of sodium citrate solution in a ratio of 9:1 and centrifuged at 200 g (1000 rev/min) for 10 minutes. The top supernatant layer enriched with thrombocytes was transferred by an automatic dropper into a silicone test tube and kept at 37° C. The plasma enriched with thrombocytes contained, on the average, […]. If this content exceeded the specified 3×10^8 blood platelets in 1 liter, this sample was diluted to the necessary concentration with plasma deprived of thrombocytes, which was obtained by centrifuging blood at 650 g during 10 minutes.
The measurements of the optical density of the samples were made on two-channel aggregometer of the “Chronolog” Company (USA). A flask containing 490 mkl of plasma rich with thrombocytes was placed in a device, into which a magnetic agitator covered with Teflon was lowered. The index of maximum amplitude of aggregation (MA) in percent of a fall of the plasma optical density under effect of the aggregation inductor was recorded. The control index MA of plasma was compared with the MA of plasma incubated for 3 minutes with different concentrations of the compounds: from 10^−3 to 10^−7 in vitro experiments or with plasma obtained 15, 30, 60 and 120 minutes after intravenous administration of different doses of the compounds in vivo experiments.
The process of aggregation of thrombocytes was recorded with the help of a computer; on the monitor screen the there were depicted curves reflecting changes of the optical density of the plasma enriched which was taken as a standard 100% compared to the optical density of the non-thrombocyte plasma taken for 0% content of thrombocytes.
Under in vitro conditions a flask was filled with blood plasma enriched with thrombocytes, to which an aggregation inductor ADP was added at a concentration of 10^−5 M, incubated for 3 minutes, and then the compounds according to the invention were introduced directly into the flask. Their action by aggregation of thrombocytes was studied after 3-minute incubation in a wide range of concentrations from 10^−3 to 10^−7 M to minimum concentration of 10^−7M not inducing no effect of suppressing the aggregation.

[2] = tested on: adenosine-sensitive receptors of erythrocytes; assay: Interaction with adenosine-sensitive receptors of erythrocytes (chemiluminescence of bound compound, adenosine competition); type: binding, mice of line BALB/c; details: incubation at 37° C. vs 4° C., 10^−7 to 10^−5 M
Description: The interaction of compounds 2, 15, 21, 37 according to the invention with adenosine-sensitive receptors of erythrocytes of female mice of line BALB/c of an age of 8-12 months was investigated.
The dependence of the chemiluminescence intensity of the compounds according to the invention in an alkaline solution of 0.1N NaOH was determined in the presence of hydrogen peroxide being an initiator of chemiluminescence. The chemiluminescence was studied using the <<LKB>> chemiluminometer.
The erythrocytes of peripheral blood of the mice at first were washed three times by a normal physiological solution with centrifuging and then diluted in the Henks solution without glucose by 10 volumes of distilled water immediately used in the experiment.
At the first stage of the experiments the washed erythrocytes were incubated at a temperature of 37° C. or at 4° C. with solutions of the compounds according to the invention at a concentration of 10^−7 to 10^−5 M for 5-30 minutes, then washed by a normal physiological solution with repeated centrifuging in the cold. The obtained suspension of erythrocytes with the bound compounds according to the invention was placed in 0.1N solution of NaOH with addition of hydrogen peroxide at a final concentration of 10^−7 M. The chemiluminescence intensity was measured. A suspension of erythrocytes without compounds according to the invention was used as a control medium.
At the second stage of the experiments the washed erythrocytes were incubated at a temperature of 37° C. with solutions of the compounds according to the invention at a concentration of 10^−11 to 10^−8 M during 5-30 minutes, then washed twice with a normal physiological solution by centrifuging in the cold, the obtained suspension was mixed with an adenosine solution at a concentration of 10^−6 to 10^−4 and incubated for 15 minutes, then washed twice with a normal physiological solution with centrifuging in the cold. The obtained suspension of erythrocytes with the compounds according to the invention was placed in 0.1N solution of NaOH with addition of hydrogen peroxide in the final concentration of 10^−7 M. The chemiluminescence intensity was measured.

For `Nc1ccnc2c(=O)n([C@@H]3O[C@H](CO)[C@@H](O)[C@H]3O)[nH]c(=O)c12` [Compound 2, 4-amino-7-(β-D-ribofuranosile)pyrido[2,3-d]-6H-pyridazine-5,8-dione], the “MA - fall of optical density of plasma, % to the standard” value (“MA - fall … % to the standard” for short) ([1]; 10^−3 M, control 60.8 ± 3.4) was 51.4 ± 2.7 %, the “MA - fall … % to the standard” value ([1]; 10^−4 M, control 60.0 ± 2.1) was 50.4 ± 1.7 % and the “MA - fall … % to the standard” value ([1]; 10^−5 M, control 52.5 ± 2.1) was 48.2 ± 1.0 %. The “MA - drop of optical density, %” value ([1]; 10^−6 M, control 52.8 ± 1.8) was 50.1 ± 2.0%, the “MA - drop of optical density, %” value ([1]; 10^−7 M, control 51.5 ± 2.1) was 50.8 ± 2.2% and the “dependence of the bond with erythrocytes on temperature” value (“dependence of the bond” below) [2] was “does not depend on the temperature”.

With `O=c1[nH][nH]c(=O)c2ncccc12.[Li]` [Compound 6, lithium salt of pyrido[2,3-d]-6H-pyridazine-5,8-dione] the “MA - fall … % to the standard” value ([1]; 10^−3 M, control 60.8 ± 3.4) was 50.0 ± 1.9 %, the “MA - fall … % to the standard” value ([1]; 10^−4 M, control 60.0 ± 2.1) was 53.3 ± 2.2 % and the “MA - fall … % to the standard” value ([1]; 10^−5 M, control 52.5 ± 2.1) was 47.4 ± 2.0 %. For the same compound, the “MA - drop of optical density, %” value ([1]; 10^−6 M, control 52.8 ± 1.8) was 51.2 ± 3.2% and the “MA - drop of optical density, %” value ([1]; 10^−7 M, control 51.5 ± 2.1) was 50.7 ± 3.2%.

In the case of `Nc1cccc2c(=O)[nH][nH]c(=O)c12.[Na]` [Compound 15, sodium salt of 5-amino-benzo[d]-3H-pyridazine-1,4-dione], the “MA - fall … % to the standard” value ([1]; 10^−3 M, control 60.8 ± 3.4) is reported as 44.8 ± 2.8 %, the “MA - fall … % to the standard” value ([1]; 10^−4 M, control 60.0 ± 2.1) is reported as 46.3 ± 1.7 % and the “MA - fall … % to the standard” value ([1]; 10^−5 M, control 52.5 ± 2.1) is reported as 39.8 ± 3.1 %. The “MA - drop of optical density, %” value ([1]; 10^−6 M, control 52.8 ± 1.8) was 47.3 ± 1.8 %, the “MA - drop of optical density, %” value ([1]; 10^−7 M, control 51.5 ± 2.1) was 49.3 ± 1.4% and the “dependence of the bond” value [2] was “does not depend on the temperature”.

In the case of `Nc1cnc2c(=O)n([C@@H]3O[C@H](CO)[C@@H](O)[C@H]3O)[nH]c(=O)c2n1.[Na]` [Compound 21, sodium salt of 3-amino-7-(β-D-ribofuranosile)pyrazine[2,3-d]-6H-pyridazine-5,8-dione], the “MA - fall … % to the standard” value ([1]; 10^−3 M, control 60.8 ± 3.4) is reported as 47.1 ± 3.0 %, the “MA - fall … % to the standard” value ([1]; 10^−4 M, control 60.0 ± 2.1) is reported as 49.2 ± 2.1 % and the “MA - fall … % to the standard” value ([1]; 10^−5 M, control 52.5 ± 2.1) is reported as 41.8 ± 2.4 %. For the same compound, the “MA - drop of optical density, %” value ([1]; 10^−6 M, control 52.8 ± 1.8) was 49.6 ± 1.7%, the “MA - drop of optical density, %” value ([1]; 10^−7 M, control 51.5 ± 2.1) was 49.7 ± 2.1% and the “dependence of the bond” value [2] was “does not depend on the temperature”.

In the case of `O=c1[nH][nH]c(=O)c2nccnc12.[Li]` [Compound 25, lithium salt of pyrazine[2,3-d]-6H-pyridazine-5,8-dione], the “MA - fall … % to the standard” value ([1]; 10^−3 M, control 60.8 ± 3.4) is reported as 48.2 ± 2.9 %, the “MA - fall … % to the standard” value ([1]; 10^−4 M, control 60.0 ± 2.1) is reported as 48.6 ± 2.0 % and the “MA - fall … % to the standard” value ([1]; 10^−5 M, control 52.5 ± 2.1) is reported as 43.4 ± 3.2 %. For the same compound, the “MA - drop of optical density, %” value ([1]; 10^−6 M, control 52.8 ± 1.8) was 50.3 ± 2.1% and the “MA - drop of optical density, %” value ([1]; 10^−7 M, control 51.5 ± 2.1) was 50.1 ± 3.0%.

`Nc1ncc2c(=O)[nH][nH]c(=O)c2n1` [Compound 36, 2-amino-pyrimido[4,5-d]-6H-pyridazine-5,8-dione] was tested, and the “MA - fall … % to the standard” value ([1]; 10^−3 M, control 60.8 ± 3.4) was 45.8 ± 2.3 %, the “MA - fall … % to the standard” value ([1]; 10^−4 M, control 60.0 ± 2.1) was 46.9 ± 2.4 % and the “MA - fall … % to the standard” value ([1]; 10^−5 M, control 52.5 ± 2.1) was 40.1 ± 2.0 %. The “MA - drop of optical density, %” value ([1]; 10^−6 M, control 52.8 ± 1.8) was 49.3 ± 2.6% and the “MA - drop of optical density, %” value ([1]; 10^−7 M, control 51.5 ± 2.1) was 49.7 ± 1.8%.

With `O=c1[nH][nH]c(=O)c2c(Br)ncnc12.[K]` [Compound 37, potassium salt of 4-bromine-pyrimido[4,5-D]-6H-pyridazine-5,8-dione] the “MA - fall … % to the standard” value ([1]; 10^−3 M, control 60.8 ± 3.4) was 46.9 ± 2.7 %, the “MA - fall … % to the standard” value ([1]; 10^−4 M, control 60.0 ± 2.1) was 47.1 ± 2.0 % and the “MA - fall … % to the standard” value ([1]; 10^−5 M, control 52.5 ± 2.1) was 40.6 ± 1.7 %. The “MA - drop of optical density, %” value ([1]; 10^−6 M, control 52.8 ± 1.8) was 48.1 ± 2.9%, the “MA - drop of optical density, %” value ([1]; 10^−7 M, control 51.5 ± 2.1) was 50.1 ± 1.0% and the “dependence of the bond” value [2] was “does not depend on the temperature”.
